In PubChem BioAssay (NCI):
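Protocol summary: plate cells (96-well), add compound at 5 concentrations, incubate 48 h, interpolate endpoints linearly. GI50 = concentration required for 50% inhibition of growth. At the TGI there is no net growth.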

Tests used:
Test in all cases: inhibition of tumour cell growth, NCI panel, 48 h
U251 CNS = tested on: U251 CNS
SNB-75 CNS = tested on: SNB-75 CNS
MALME-3M melanoma = tested on: MALME-3M melanoma
SNB-19 CNS = tested on: SNB-19 CNS
786-0 renal = tested on: 786-0 renal
HL-60(TB) leukemia = tested on: HL-60(TB) leukemia
MDA-MB-468 breast = tested on: MDA-MB-468 breast
ACHN renal = tested on: ACHN renal
OVCAR-8 ovarian = tested on: OVCAR-8 ovarian
CCRF-CEM leukemia = tested on: CCRF-CEM leukemia
COLO 205 colon = tested on: COLO 205 colon
NCI-H522 lung = tested on: NCI-H522 lung
NCI-H23 lung = tested on: NCI-H23 lung
RPMI-8226 leukemia = tested on: RPMI-8226 leukemia
BT-549 breast = tested on: BT-549 breast
SF-268 CNS = tested on: SF-268 CNS
DU-145 prostate = tested on: DU-145 prostate
HS 578T breast = tested on: HS 578T breast
CAKI-1 renal = tested on: CAKI-1 renal
HOP-92 NSCLC = tested on: HOP-92 NSCLC
T-47D breast = tested on: T-47D breast
UO-31 renal = tested on: UO-31 renal
OVCAR-4 ovarian = tested on: OVCAR-4 ovarian
MDA-MB-435 = tested on: MDA-MB-435
M14 melanoma = tested on: M14 melanoma
UACC-257 melanoma = tested on: UACC-257 melanoma
SR leukemia = tested on: SR leukemia
MOLT-4 leukemia = tested on: MOLT-4 leukemia
SK-MEL-2 melanoma = tested on: SK-MEL-2 melanoma
NCI-H226 lung = tested on: NCI-H226 lung
SK-MEL-28 melanoma = tested on: SK-MEL-28 melanoma
OVCAR-5 ovarian = tested on: OVCAR-5 ovarian
K-562 leukemia = tested on: K-562 leukemia
TK-10 renal = tested on: TK-10 renal
SK-OV-3 ovarian = tested on: SK-OV-3 ovarian
NCI/ADR-RES ovarian = tested on: NCI/ADR-RES ovarian
HOP-62 NSCLC = tested on: HOP-62 NSCLC
MCF7 breast = tested on: MCF7 breast
SK-MEL-5 melanoma = tested on: SK-MEL-5 melanoma
OVCAR-3 ovarian = tested on: OVCAR-3 ovarian
UACC-62 melanoma = tested on: UACC-62 melanoma
KM12 colon = tested on: KM12 colon
NCI-H460 lung = tested on: NCI-H460 lung
HCC-2998 colon = tested on: HCC-2998 colon
HCT-15 colon = tested on: HCT-15 colon
SF-295 CNS = tested on: SF-295 CNS
LOX IMVI melanoma = tested on: LOX IMVI melanoma
HCT-116 colon = tested on: HCT-116 colon
A498 renal = tested on: A498 renal
HT29 colon = tested on: HT29 colon
IGROV1 ovarian = tested on: IGROV1 ovarian
SN12C renal = tested on: SN12C renal
EKVX NSCLC = tested on: EKVX NSCLC
A549 NSCLC = tested on: A549 NSCLC
SW-620 colon = tested on: SW-620 colon
MDA-MB-231 breast = tested on: MDA-MB-231 breast
SF-539 CNS = tested on: SF-539 CNS
PC-3 prostate = tested on: PC-3 prostate
RXF 393 renal = tested on: RXF 393 renal

With `CCN(CC)CCOc1ccc(C(=C(C)c2ccccc2)c2ccc(OCCN(CC)CC)cc2)cc1` the GI50 (U251 CNS) was 3.69 µM, the TGI (U251 CNS) was 7.44 µM and the GI50 (SNB-75 CNS) was 3.07 µM. The TGI (SNB-75 CNS) was 6.98 µM, the GI50 (MALME-3M melanoma) was 3.61 µM and the TGI (MALME-3M melanoma) was 6.73 µM. For the same compound, the GI50 (SNB-19 CNS) was 4.29 µM, the TGI (SNB-19 CNS) was 8.7 µM and the GI50 (786-0 renal) was 2980 nM. It also gave a TGI (786-0 renal) of 6.77 µM, a GI50 (HL-60(TB) leukemia) of 4.36 µM and a TGI (HL-60(TB) leukemia) of 22.1 µM. It also gave a GI50 (MDA-MB-468 breast) of 1840 nM, a TGI (MDA-MB-468 breast) of 5.04 µM and a GI50 (ACHN renal) of 3.63 µM. The TGI (ACHN renal) was 6.97 µM, the GI50 (OVCAR-8 ovarian) was 6.12 µM and the TGI (OVCAR-8 ovarian) was 18.1 µM. The GI50 (CCRF-CEM leukemia) was 2370 nM, the TGI (CCRF-CEM leukemia) was 6.61 µM and the GI50 (COLO 205 colon) was 3.36 µM. The TGI (COLO 205 colon) was 6.89 µM, the GI50 (NCI-H522 lung) was 3.63 µM and the TGI (NCI-H522 lung) was 7.85 µM. For the same compound, the GI50 (NCI-H23 lung) was 4.27 µM, the TGI (NCI-H23 lung) was 10.7 µM and the GI50 (RPMI-8226 leukemia) was 3.51 µM. It also gave a TGI (RPMI-8226 leukemia) of 8.8 µM, a GI50 (BT-549 breast) of 4.46 µM and a TGI (BT-549 breast) of 8.15 µM. The GI50 (SF-268 CNS) was 3.47 µM, the TGI (SF-268 CNS) was 8.81 µM and the GI50 (DU-145 prostate) was 6 µM. For the same compound, the TGI (DU-145 prostate) was over 23 µM, the GI50 (HS 578T breast) was 4.08 µM and the TGI (HS 578T breast) was 10.2 µM. The GI50 (CAKI-1 renal) was 3.42 µM, the TGI (CAKI-1 renal) was 7.07 µM and the GI50 (HOP-92 NSCLC) was 1760 nM. It also gave a TGI (HOP-92 NSCLC) of 6.5 µM, a GI50 (T-47D breast) of 2660 nM and a TGI (T-47D breast) of 5.98 µM. The GI50 (UO-31 renal) was 2990 nM, the TGI (UO-31 renal) was 5.97 µM and the GI50 (OVCAR-4 ovarian) was 4.56 µM. It also gave a TGI (OVCAR-4 ovarian) of 11.7 µM, a GI50 (MDA-MB-435) of 3.02 µM and a TGI (MDA-MB-435) of 6.48 µM. The GI50 (M14 melanoma) was 3.34 µM, the TGI (M14 melanoma) was 7.71 µM and the GI50 (UACC-257 melanoma) was 4.25 µM. The TGI (UACC-257 melanoma) was 8.08 µM, the GI50 (SR leukemia) was 2440 nM and the TGI (SR leukemia) was over 23 µM. The GI50 (MOLT-4 leukemia) was 4.71 µM, the TGI (MOLT-4 leukemia) was 14.8 µM and the GI50 (SK-MEL-2 melanoma) was 4.13 µM. For the same compound, the TGI (SK-MEL-2 melanoma) was 7.85 µM, the GI50 (NCI-H226 lung) was 5.92 µM and the TGI (NCI-H226 lung) was over 23 µM. The GI50 (SK-MEL-28 melanoma) was 3.52 µM, the TGI (SK-MEL-28 melanoma) was 6.65 µM and the GI50 (OVCAR-5 ovarian) was 3.45 µM. The TGI (OVCAR-5 ovarian) was 7.76 µM, the GI50 (K-562 leukemia) was 968 nM and the TGI (K-562 leukemia) was over 23 µM. For the same compound, the GI50 (TK-10 renal) was 3.17 µM, the TGI (TK-10 renal) was 6.66 µM and the GI50 (SK-OV-3 ovarian) was 3.69 µM. The TGI (SK-OV-3 ovarian) was 7.16 µM, the GI50 (NCI/ADR-RES ovarian) was 4.71 µM and the TGI (NCI/ADR-RES ovarian) was 13.9 µM. The GI50 (HOP-62 NSCLC) was 3.54 µM, the TGI (HOP-62 NSCLC) was 7.31 µM and the GI50 (MCF7 breast) was 750 nM. It also gave a TGI (MCF7 breast) of 4.18 µM, a GI50 (SK-MEL-5 melanoma) of 3.57 µM and a TGI (SK-MEL-5 melanoma) of 6.78 µM. It also gave a GI50 (OVCAR-3 ovarian) of 2960 nM, a TGI (OVCAR-3 ovarian) of 7.11 µM and a GI50 (UACC-62 melanoma) of 3.89 µM. For the same compound, the TGI (UACC-62 melanoma) was 7.12 µM, the GI50 (KM12 colon) was 3.47 µM and the TGI (KM12 colon) was 7.22 µM. It also gave a GI50 (NCI-H460 lung) of 3.57 µM, a TGI (NCI-H460 lung) of 6.96 µM and a GI50 (HCC-2998 colon) of 2910 nM. It also gave a TGI (HCC-2998 colon) of 6.14 µM, a GI50 (HCT-15 colon) of 2600 nM and a TGI (HCT-15 colon) of 6.85 µM. For the same compound, the GI50 (SF-295 CNS) was 3.58 µM, the TGI (SF-295 CNS) was 7.26 µM and the GI50 (LOX IMVI melanoma) was 3.14 µM. The TGI (LOX IMVI melanoma) was 6.25 µM, the GI50 (HCT-116 colon) was 2390 nM and the TGI (HCT-116 colon) was 7.09 µM. For the same compound, the GI50 (A498 renal) was 2730 nM, the TGI (A498 renal) was 5.62 µM and the GI50 (HT29 colon) was 1170 nM. It also gave a TGI (HT29 colon) of 5.6 µM, a GI50 (IGROV1 ovarian) of 4.27 µM and a TGI (IGROV1 ovarian) of 9.79 µM. The GI50 (SN12C renal) was 3.52 µM, the TGI (SN12C renal) was 7.22 µM and the GI50 (EKVX NSCLC) was 5.71 µM. It also gave a TGI (EKVX NSCLC) of over 23 µM, a GI50 (A549 NSCLC) of 4.54 µM and a TGI (A549 NSCLC) of 13.3 µM. It also gave a GI50 (SW-620 colon) of 3.1 µM, a TGI (SW-620 colon) of 6.31 µM and a GI50 (MDA-MB-231 breast) of 3.04 µM. For the same compound, the TGI (MDA-MB-231 breast) was 6.14 µM, the GI50 (SF-539 CNS) was 3.35 µM and the TGI (SF-539 CNS) was 6.4 µM. For the same compound, the GI50 (PC-3 prostate) was 3.59 µM, the TGI (PC-3 prostate) was 8.25 µM and the GI50 (RXF 393 renal) was 2470 nM. For the same compound, the TGI (RXF 393 renal) was 6.46 µM.
